Data reported in patent US20220081412A1, “QUINOLINYL-PYRAZINE-CARBOXAMIDE COMPOUNDS AND USES THEREOF” (The Regents of the University of Michigan, priority 2018, published 2022).

System: MIA PaCa-2 cells
Experiment: Bru-seq analysis for nascent RNA synthesis (log2FC of genes, GSEA gene sets)
Format: cell-based, human
Conditions: downregulated gene sets, 4 h, MIA PaCa-2 cells

CCN(CC)CCCC(C)Nc1cnc(C(=O)Nc2cc(C)cc3cccnc23)cn1 (stereo not drawn) [J4, 5-((5-(diethylamino)pentan-2-yl)amino)-N-(6-methylquinolin-8-yl)pyrazine-2-carboxamide]
NES TURASHVILI_BREAST_LOBULAR_CARCINOMA_VS_DUCTAL_NORMAL_DN (C2): −1.603
NES ZHANG_TLX_TARGETS_36HR_DN (C2): −2.309
NES ZHANG_TLX_TARGETS_DN (C2): −1.942
NES ZHENG_FOXP3_TARGETS_IN_T_LYMPHOCYTE_DN (C2): −1.893
ES GO_BASAL_PART_OF_CELL (GO): −0.526
ES GO_CELL_SURFACE_RECEPTOR_SIGNALING_PATHWAY_INVOLVED_IN_CELL_CELL_SIGNALING (GO): −0.570
ES GO_CILIUM_ORGANIZATION (GO): −0.331
ES GO_CYTOKINE_RECEPTOR_ACTIVITY (GO): −0.488
ES GO_DENDRITIC_SHAFT (GO): −0.568
ES GO_DNA_DEPENDENT_ATPASE_ACTIVITY (GO): −0.369
ES GO_DNA_DEPENDENT_DNA_REPLICATION_MAINTENANCE_OF_FIDELITY (GO): −0.569
ES GO_DNA_DOUBLE_STRAND_BREAK_PROCESSING (GO): −0.551
ES GO_DNA_HELICASE_ACTIVITY (GO): −0.389
ES GO_DNA_REPAIR_COMPLEX (GO): −0.429
ES GO_GLUTAMINE_METABOLIC_PROCESS (GO): −0.569
ES GO_G_PROTEIN_COUPLED_RECEPTOR_ACTIVITY (GO): −0.476
ES GO_HOMOPHILIC_CELL_ADHESION_VIA_PLASMA_MEMBRANE_ADHESION_MOLECULES (GO): −0.581
ES GO_MITOTIC_RECOMBINATION (GO): −0.420
ES GO_NEGATIVE_REGULATION_OF_EPITHELIAL_CELL_DIFFERENTIATION (GO): −0.597
ES GO_PHOSPHOLIPID_TRANSPORTER_ACTIVITY (GO): −0.549
ES GO_POTASSIUM_CHANNEL_COMPLEX (GO): −0.536
ES GO_RECIPROCAL_DNA_RECOMBINATION (GO): −0.450
ES GO_RECOMBINATIONAL_REPAIR (GO): −0.382
ES GO_REGULATION_OF_ACUTE_INFLAMMATORY_RESPONSE (GO): −0.521
ES GO_REGULATION_OF_MEMBRANE_LIPID_DISTRIBUTION (GO): −0.521
ES GO_RESPONSE_TO_X_RAY (GO): −0.501
ES GO_SOMATIC_RECOMBINATION_OF_IMMUNOGLOBULIN_GENE_SEGMENTS (GO): −0.498
ES GO_SOMITE_DEVELOPMENT (GO): −0.451
ES GO_STRAND_DISPLACEMENT (GO): −0.471
NES GO_BASAL_PART_OF_CELL (GO): −1.629
NES GO_CELL_SURFACE_RECEPTOR_SIGNALING_PATHWAY_INVOLVED_IN_CELL_CELL_SIGNALING (GO): −1.653
NES GO_CILIUM_ORGANIZATION (GO): −1.502
NES GO_CYTOKINE_RECEPTOR_ACTIVITY (GO): −1.467
NES GO_DENDRITIC_SHAFT (GO): −1.746
NES GO_DNA_DEPENDENT_ATPASE_ACTIVITY (GO): −1.545
NES GO_DNA_DEPENDENT_DNA_REPLICATION_MAINTENANCE_OF_FIDELITY (GO): −1.697
NES GO_DNA_DOUBLE_STRAND_BREAK_PROCESSING (GO): −1.613
NES GO_DNA_HELICASE_ACTIVITY (GO): −1.504
NES GO_DNA_REPAIR_COMPLEX (GO): −1.586
NES GO_GLUTAMINE_METABOLIC_PROCESS (GO): −1.616
NES GO_G_PROTEIN_COUPLED_RECEPTOR_ACTIVITY (GO): −1.804
NES GO_HOMOPHILIC_CELL_ADHESION_VIA_PLASMA_MEMBRANE_ADHESION_MOLECULES (GO): −1.691
NES GO_MITOTIC_RECOMBINATION (GO): −1.547
NES GO_NEGATIVE_REGULATION_OF_EPITHELIAL_CELL_DIFFERENTIATION (GO): −1.799
NES GO_PHOSPHOLIPID_TRANSPORTER_ACTIVITY (GO): −1.692
NES GO_POTASSIUM_CHANNEL_COMPLEX (GO): −1.693
NES GO_RECIPROCAL_DNA_RECOMBINATION (GO): −1.485
NES GO_RECOMBINATIONAL_REPAIR (GO): −1.548
NES GO_REGULATION_OF_ACUTE_INFLAMMATORY_RESPONSE (GO): −1.555
NES GO_REGULATION_OF_MEMBRANE_LIPID_DISTRIBUTION (GO): −1.498
NES GO_RESPONSE_TO_X_RAY (GO): −1.636
NES GO_SOMATIC_RECOMBINATION_OF_IMMUNOGLOBULIN_GENE_SEGMENTS (GO): −1.483
NES GO_SOMITE_DEVELOPMENT (GO): −1.594
NES GO_STRAND_DISPLACEMENT (GO): −1.493
ES HALLMARK_KRAS_SIGNALING_DN (HALLMARK): −0.282
ES HALLMARK_KRAS_SIGNALING_UP (HALLMARK): −0.230
ES HALLMARK_MYC_TARGETS_V1 (HALLMARK): −0.172
ES HALLMARK_MYC_TARGETS_V2 (HALLMARK): −0.178
ES HALLMARK_TGF_BETA_SIGNALING (HALLMARK): −0.324
NES HALLMARK_KRAS_SIGNALING_DN (HALLMARK): −0.992
NES HALLMARK_KRAS_SIGNALING_UP (HALLMARK): −0.965
NES HALLMARK_MYC_TARGETS_V1 (HALLMARK): −0.831
NES HALLMARK_MYC_TARGETS_V2 (HALLMARK): −0.691
NES HALLMARK_TGF_BETA_SIGNALING (HALLMARK): −1.256
ES KEGG_ABC_TRANSPORTERS (KEGG): −0.412
ES KEGG_ADHERENS_JUNCTION (KEGG): −0.158
ES KEGG_ALANINE_ASPARTATE_AND_GLUTAMATE_METABOLISM (KEGG): −0.250
ES KEGG_AMYOTROPHIC_LATERAL_SCLEROSIS_ALS (KEGG): −0.247
ES KEGG_AXON_GUIDANCE (KEGG): −0.201
ES KEGG_CALCIUM_SIGNALING_PATHWAY (KEGG): −0.324
ES KEGG_CELL_ADHESION_MOLECULES_CAMS (KEGG): −0.231
ES KEGG_CYTOSOLIC_DNA_SENSING_PATHWAY (KEGG): −0.247
ES KEGG_DNA_REPLICATION (KEGG): −0.254
ES KEGG_ECM_RECEPTOR_INTERACTION (KEGG): −0.201
ES KEGG_HEDGEHOG_SIGNALING_PATHWAY (KEGG): −0.329
ES KEGG_HOMOLOGOUS_RECOMBINATION (KEGG): −0.260
ES KEGG_MISMATCH_REPAIR (KEGG): −0.375
ES KEGG_NEUROACTIVE_LIGAND_RECEPTOR_INTERACTION (KEGG): −0.624
ES KEGG_NUCLEOTIDE_EXCISION_REPAIR (KEGG): −0.241
ES KEGG_PATHOGENIC_ESCHERICHIA_COLI_INFECTION (KEGG): −0.220
ES KEGG_PURINE_METABOLISM (KEGG): −0.285
ES KEGG_PYRIMIDINE_METABOLISM (KEGG): −0.256
ES KEGG_RIG_I_LIKE_RECEPTOR_SIGNALING_PATHWAY (KEGG): −0.197
ES KEGG_RNA_POLYMERASE (KEGG): −0.202
ES KEGG_STARCH_AND_SUCROSE_METABOLISM (KEGG): −0.342
ES KEGG_TGF_BETA_SIGNALING_PATHWAY (KEGG): −0.336
ES KEGG_WNT_SIGNALING_PATHWAY (KEGG): −0.231
NES KEGG_ABC_TRANSPORTERS (KEGG): −1.220
NES KEGG_ADHERENS_JUNCTION (KEGG): −0.628
NES KEGG_ALANINE_ASPARTATE_AND_GLUTAMATE_METABOLISM (KEGG): −0.732
NES KEGG_AMYOTROPHIC_LATERAL_SCLEROSIS_ALS (KEGG): −0.838
NES KEGG_AXON_GUIDANCE (KEGG): −0.829
NES KEGG_CALCIUM_SIGNALING_PATHWAY (KEGG): −1.264
NES KEGG_CELL_ADHESION_MOLECULES_CAMS (KEGG): −0.738
NES KEGG_CYTOSOLIC_DNA_SENSING_PATHWAY (KEGG): −0.784
NES KEGG_DNA_REPLICATION (KEGG): −0.912
NES KEGG_ECM_RECEPTOR_INTERACTION (KEGG): −0.655
NES KEGG_HEDGEHOG_SIGNALING_PATHWAY (KEGG): −0.982
NES KEGG_HOMOLOGOUS_RECOMBINATION (KEGG): −0.820
NES KEGG_MISMATCH_REPAIR (KEGG): −1.179
NES KEGG_NEUROACTIVE_LIGAND_RECEPTOR_INTERACTION (KEGG): −1.955
NES KEGG_NUCLEOTIDE_EXCISION_REPAIR (KEGG): −0.899
NES KEGG_PATHOGENIC_ESCHERICHIA_COLI_INFECTION (KEGG): −0.782
NES KEGG_PURINE_METABOLISM (KEGG): −1.277
NES KEGG_PYRIMIDINE_METABOLISM (KEGG): −1.109
NES KEGG_RIG_I_LIKE_RECEPTOR_SIGNALING_PATHWAY (KEGG): −0.724
NES KEGG_RNA_POLYMERASE (KEGG): −0.669
NES KEGG_STARCH_AND_SUCROSE_METABOLISM (KEGG): −1.006
NES KEGG_TGF_BETA_SIGNALING_PATHWAY (KEGG): −1.284
NES KEGG_WNT_SIGNALING_PATHWAY (KEGG): −0.992
ES BRN2_01 (TFBT): −0.247
ES CDPCR1_01 (TFBT): −0.259
ES CDP_01 (TFBT): −0.301
ES EN1_01 (TFBT): −0.276
ES FOXJ2_02 (TFBT): −0.261
ES GGCKCATGS_UNKNOWN (TFBT): −0.441
ES HMEF2_Q6 (TFBT): −0.266
ES HNF1_Q6 (TFBT): −0.266
ES HOX13_01 (TFBT): −0.366
ES IK1_01 (TFBT): −0.227
ES IRF2_01 (TFBT): −0.324
ES MEF2_02 (TFBT): −0.225
ES MEF2_Q6_01 (TFBT): −0.220
ES MEIS1BHOXA9_01 (TFBT): −0.320
ES NKX3A_01 (TFBT): −0.267
ES PAX8_01 (TFBT): −0.439
